These results are taken from paper PMC5415608, “The Effects of Herbicides Targeting Aromatic and Branched Chain Amino Acid Biosynthesis Support the Presence of Functional Pathways in Broomrape” (Frontiers in Plant Science, 2017).

In experiment [1] the test system is T1, EPSPS (P. aegyptiaca 5-enolpyruvylshikimate-3-phosphate synthase).
T1 construct: single gene copy found; predicted 64-residue chloroplast transit peptide
The experiment can be described thus: colorimetric phosphate release assay ([…] nm), partially purified extract. The class given is biochemical, Phelipanche aegyptiaca. As to conditions: callus enzyme; 1 mM shikimate-3-phosphate (natural substrate), 0.1 mM phosphoenolpyruvate, 500 mM MES pH 5.5, 2 mM DTT, 30°C, 15 min; read-out: ID50 (the source's name).

Experiment [2] relates to T2, ALS (P. aegyptiaca acetolactate synthase).
T2 construct: single gene copy found; predicted 42-residue chloroplast transit peptide
In words: colorimetric acetoin assay (creatine/alpha-naphthol, […] nm), partially purified extract. Format: biochemical, Phelipanche aegyptiaca. As to conditions: flowering shoot enzyme; 167 mM pyruvate, 16.7 mM MgCl2, 1.67 mM TPP, 16.6 μM FAD, pH 7.0, 37°C, 60 min; read-out: ID50 (the source's name).

For experiment [3], the system named is T3, ALS from young tomato leaves.
T3 construct: gene ALS1; native, partially purified extract of young tomato leaves
Described as above. The class given is biochemical, Solanum lycopersicum. As to conditions: young leaf enzyme; 167 mM pyruvate, 16.7 mM MgCl2, 1.67 mM TPP, 16.6 μM FAD, pH 7.0, 37°C, 60 min; read-out: ID50 (the source's name).

As to `O=C(O)CNCP(=O)(O)O` [glyphosate], the IC50 in experiment [1] is approximately 8 µM.
Consider `Cc1cnc(C2=NC(C)(C(C)C)C(=O)N2)c(C(=O)O)c1` (centres unmarked) [imazapic], for which the IC50 in experiment [2] was 2070 ± 70 nM; in experiment [3], approximately 470 nM.
As for `CC(C)C1(C)N=C(c2ncccc2C(=O)O)NC1=O` (centres unmarked) [imazapyr], the IC50 in experiment [2] stood at 11600 ± 1200 nM.
Still for that read-out and setting: with `CCS(=O)(=O)c1cccnc1S(=O)(=O)NC(=O)Nc1nc(OC)cc(OC)n1` [rimsulfuron] the figure was 110 ± 30 nM.
